This is an account of results in patent publication US9566307B2, “Pharmaceutical composition” (priority 2012, dated 2017).

Residues, ends and D or L forms follow the SMILES beside them. *: point of attachment. Cbz = O=C(OCc1ccccc1)*; CH2F = FC*

The test system of series [1] is T.Tn (esophageal cancer cell line). The series is described as follows: Effects of various inhibitors to cytotoxicity of EV4 type (1), microscope images. Format: cell-based, human. Conditions: EV4 type MOI=0.1, four days after infection, 100 μM Z-VADfmk, 25 μM LY294002, 0.1 μM PD0325901, 1.0 μM bpV, FIG. 2. As for the experimental part:
The inhibitors tested to check the effects to the cytotoxicity of EV4 type were Z-VADfmk (R&D System Corporation) as a pan-caspase inhibitor, LY294002 (Santa Cruz Biotechnology Corporation) as a PI3K inhibitor, PD0325901 (Wako Corporation) as an MEK inhibitor, and bpV (Merck Corporation) as a PTEN inhibitor.
T.Tn was disseminated in a plate with 96 wells at 1×10^4 cells/well, and the plate was left stationary under a condition of 37° C. and 5% CO2. The culture medium in the well was replaced with a culture medium added with each inhibitor so as to be 100 μl/well. As to the concentrations of the respective inhibitors, 100 μM for Z-VADfmk, 25 μM for LY294002, 0.1 μM for PD0325901, and 1.0 μM for bpV. After the culture medium was replaced, the plate was left stationary under a condition of 37° C. and 5% CO2 for one hour. After the culture medium was eliminated, 100 μl of the diluted solution of EV4 type diluted with OPTI-MEM I so as to make EV4 type to be MOI=0.1 was added to each well, and was left stationary under a condition of 37° C. and 5% CO2 for one hour. Next, the diluted solution of EV4 type was eliminated, and the RPMI culture media containing the respective inhibitors were added to respective wells, and were co-cultured. Four days after the start of co-culturing, the image of each well was picked up by an optical microscope. Note that the concentration of each inhibitor was set to be a concentration expected not showing a cytotoxicity to T.Tn.

Another series concerns HT29. The series is described as follows: Oxaliplatin resistance check, cell survival rate by MTS technique. Format: cell-based, human. The note with it: HT29, oxaliplatin 100 μM, 48 hours; FIG. 17. As for the experimental part: (§1) In addition, in order to check the oxaliplatin resistance of, among the test-target cells, WiDr and HT29, respective cell survival rates of WiDr and HT29 after cultured for 48 hours in culture media containing oxaliplatin of a predetermined concentration were evaluated through an MTS technique.

The next series concerns WiDr. The series is described as above. Format: cell-based, human. The note with it: oxaliplatin 200 μM, 48 hours, FIG. 17. The method, then: as §1
For series [2], the system named is TE8 tumor indicating a resistivity against CDDP. The series is described as follows: In vivo antitumor effect of EV4 type to CDDP resistant tumor, tumor volume. Details: species or system nude mouse. Conditions: CDDP administered group, 125 μg/administration in abdominal cavity on second day; FIG. 10. The method, then: The tumor refraction performance of EV4 type to a TE8 bearing nude mouse indicating a resistivity against CDDP (also called cisplatin) utilized in chemotherapies for esophageal cancer was examined. A nude mouse was inoculated with TE8 like the fifth example (0th day), and when it was confirmed that the tumor major axis became equal to or greater than 4 mm, CDDP dissolved in a normal saline solution was administered in an abdominal cavity at 125 μg/administration (second day). Note that for a non-treated group, the same amount of normal saline solution was administered. Eight days after the inoculation of TE8, furthermore, an EV4 type solution suspended in OPTI-MEM I of 50 μl was administered in the tumor once per a day and at a total of five times and at 1×10^7 TCID50/administration or 5×10^7 TCID50/administration. For the non-treated group and the CDDP administered group, the same amount of OPTI-MEM I was administered. The evaluation items were the tumor volume and the body weight like the fourth example.

The test system of another series is TE8 cells. The series is described as follows: Effect of MEK inhibitor to cytotoxicity of EV4 type (2), Celltilter-Glo living cell quantitation. Format: cell-based, human. The note with it: EV4 type MOI=1.0, PD0325901 50-nM, 48 hours co-culturing, FIG. 3. The method, then: An effect of an MEK inhibitor PD0325901 to the cytotoxicity of EV4 type was quantitatively examined.
TE8 cells was disseminated in a plate with 96 wells at 1×10^4 cells/well, and the plate was left stationary for six hours under a condition of 37° C. and 5% CO2. The culture medium in the well was replaced with a culture medium containing a DMSO solution of PD0325901 of 50-nM. After the culture medium was replaced, the plate was left stationary for one hour under a condition of 37° C. and 5% CO2. After the culture medium was eliminated, 100 μl of EV4 type diluted solution diluted with OPTI-MEM I so as to have MOI=1.0 was added to each well, and the plate was left stationary for one hour under a condition of 37° C. and 5% CO2. For a control, a diluted solution of 100 μl containing no EV4 type was added. Next, the diluted solution was eliminated, and the culture media containing PD0325901 were added to respective wells, and were co-cultured. 48 hours after the start of co-culturing, living cells were quantitated using a Celltilter-Glo (Registered Trademark) kit of Promega corporation.

Consider `COC(=O)C[C@H](NC(=O)[C@H](C)NC(=O)[C@@H](NC(=O)OCc1ccccc1)C(C)C)C(=O)CF` [Z-VADfmk] (Cbz-Val-Ala-Asp(OMe)-CH2F), for which the “Effect of inhibitor on the cytotoxicity by EV4 type” value (“Effect of inhibitor … by EV4 type” below) in series [1] is given as “reduced”. Turning to `O=C1[O][Pt]2([NH][C@@H]3CCCC[C@H]3[NH]2)[O]C1=O` [oxaliplatin], the Cell survival rate entry in the series on HT29 and in the series on WiDr was “maintained the similar level of cell survival rate to those of the control group” throughout.

bpV: the “Effect of inhibitor … by EV4 type” value in series [1] is listed as “reduced”. As for `O=c1cc(N2CCOCC2)oc2c(-c3ccccc3)cccc12` [LY294002], in series [1], the “Effect of inhibitor … by EV4 type” value is “enhanced”. On to `[NH2][Pt]([NH2])([Cl])[Cl]` [CDDP, cisplatin], for which the “Tumor volume, change with time” value in series [2] is “suppression of the increase of the tumor volume for eight days, but the increase of the tumor volume was observed thereafter”. `O=C(NOC[C@H](O)CO)c1ccc(F)c(F)c1Nc1ccc(I)cc1F` [PD0325901]: the “Effect of inhibitor … by EV4 type” value in series [1] is recorded as “enhanced”. The “Effect of inhibitor on the cytotoxicity of EV4 type (cell survival rate)” value in the series on TE8 cells is “significantly enhanced”.
